From patent publication US6274715A, “Tricyclic erythromycin derivatives” (priority 1997, dated 2001)
≈ marks a conversion by molar mass, not a printed value.

Experiments:
Type in all cases: cell-based
[1] = tested on: STAPHYLOCOCCUS AUREUS ATCC 6538P; experiment: In vitro antibacterial activity, MIC, BHI agar dilution; details: S. aureus ATCC 6538P, 35-37° C., 20 to 24 hours, unit assumed
[2] = tested on: STAPHYLOCOCCUS AUREUS A5177; experiment: as above; details: S. aureus A5177, unit assumed
[3] = tested on: STAPHYLOCOCCUS AUREUS A-5278; experiment: as above; details: S. aureus A-5278, unit assumed
[4] = tested on: STAPHYLOCOCCUS AUREUS CMX 642A; experiment: as above; details: S. aureus CMX 642A, unit assumed
[5] = tested on: STAPHYLOCOCCUS AUREUS NCTC10649M; experiment: as above; details: S. aureus NCTC10649M, unit assumed
[6] = tested on: STAPHYLOCOCCUS AUREUS CMX 553; experiment: as above; details: S. aureus CMX 553, unit assumed
[7] = tested on: STAPHYLOCOCCUS AUREUS 1775; experiment: as above; details: S. aureus 1775, unit assumed
[8] = tested on: STAPHYLOCOCCUS EPIDERMIDIS 3519; details: S. epidermidis 3519; BHI agar; unit assumed
EN[…] ATCC 8043 = experiment: In vitro antibacterial activity, MIC, BHI agar dilution; details: E. faecium ATCC 8043, unit assumed
Outline: (§1)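 BHI agar dilution, 12 plates; inoculum 1:100 (1:10 slow-growing strains), Steers replicator; 35-37° C, 20-24 h. MIC = lowest conc. with no growth/slight haze/sparse colonies vs growth control, visual read. Erythromycin A reference plate.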

M[…] ATCC 4698 = experiment: as above; details: M. luteus ATCC 4698, unit assumed
Outline: as §1

M[…] ATCC 9341 = experiment: as above; details: M. luteus ATCC 9341, unit assumed
Outline: as §1

STR[…] 508 = experiment: as above; details: S. agalactiae CMX 508, unit assumed
Outline: as §1

[9] = tested on: STREPTOCOCCUS BOVIS A-5169; experiment: as above; details: S. bovis A-5169, unit assumed
[10] = tested on: STREPTOCOCCUS PYOGENES EES61; experiment: as above; details: S. pyogenes EES61, unit assumed
[11] = tested on: STREPTOCOCCUS PYOGENES 930; experiment: as above; details: S. pyogenes 930, unit assumed
[12] = tested on: STREPTOCOCCUS PYOGENES PIU 2548; experiment: as above; details: S. pyogenes PIU 2548, unit assumed
ESCHERICHIA COLI JUHL = details: E. coli JUHL; BHI agar; unit assumed
ESCHERICHIA COLI SS = experiment: In vitro antibacterial activity, MIC, BHI agar dilution; details: E. coli SS, unit assumed
ESCHERICHIA COLI DC-2 = experiment: as above; details: E. coli DC-2, unit assumed
ESCHERICHIA COLI H560 = experiment: as above; details: E. coli H560, unit assumed
ESCHERICHIA COLI KNK 437 = details: E. coli KNK 437; BHI agar; unit assumed
[13] = tested on: ENTEROBACTER AEROGENES ATCC 13048; experiment: In vitro antibacterial activity, MIC, BHI agar dilution; details: E. aerogenes ATCC 13048, unit assumed
[14] = tested on: KLEBSIELLA PNEUMONIAE ATCC 8045; experiment: as above; details: K. pneumoniae ATCC 8045, unit assumed
[15] = tested on: PROVIDENCIA STUARTII CMX 640; details: P. stuartii CMX 640; BHI agar; unit assumed
[16] = tested on: PSEUDOMONAS AERUGINOSA BMH10; experiment: In vitro antibacterial activity, MIC, BHI agar dilution; details: P. aeruginosa BMH10, unit assumed
[17] = tested on: PSEUDOMONAS AERUGINOSA 5007; experiment: as above; details: P. aeruginosa 5007, unit assumed
[18] = tested on: PSEUDOMONAS AERUGINOSA K799/WT; experiment: as above; details: P. aeruginosa K799/WT, unit assumed
[19] = tested on: PSEUDOMONAS AERUGINOSA K799/61; experiment: as above; details: P. aeruginosa K799/61, unit assumed
PSEUDOMONAS CEPACIA 296I = experiment: as above; details: P. cepacia 296I, unit assumed
[20] = tested on: PSEUDOMONAS AERUGINOSA DPHD-5263; experiment: as above; details: P. aeruginosa DPHD-5263, unit assumed
[21] = tested on: PSEUDOMONAS AERUGINOSA DPHD-2862; experiment: as above; details: P. aeruginosa DPHD-2862, unit assumed
CANDIDA ALBICANS CCH 442 = experiment: as above; details: C. albicans CCH 442, unit assumed
[22] = tested on: MYCOBACTERIUM SMEGMATIS ATCC 114; experiment: as above; details: M. smegmatis ATCC 114, unit assumed

| SMILES | MIC [1] | MIC [2] | MIC [3] | MIC [4] | MIC [5] | MIC [6] | MIC [7] | MIC [8] | MIC (EN[…] ATCC 8043) | MIC (M[…] ATCC 4698) | MIC (M[…] ATCC 9341) | MIC (STR[…] 508) | MIC [9] | MIC [10] | MIC [11] | MIC [12] | MIC (ESCHERICHIA COLI JUHL) | MIC (ESCHERICHIA COLI SS) | MIC (ESCHERICHIA COLI DC-2) | MIC (ESCHERICHIA COLI H560) | other results |
| --- | --- | --- | --- | --- | --- | --- | --- | --- | --- | --- | --- | --- | --- | --- | --- | --- | --- | --- | --- | --- | --- |
| CC[C@H]1OC(=O)[C@H](C)C(=O)[C@H](C)[C@@H](O[C@@H]2O[C@H](C)C[C@H](N(C)C)[C@H]2O)[C@](C)(OC)C[C@@H](C)C2=NC[C@H](Cc3ccc(I)cc3)N3C(=O)O[C@@]1(C)[C@H]3[C@H]2C [Example 70] | 0.1 µg/mL (≈ 0.117 µM) | 0.1 µg/mL (≈ 0.117 µM) | 100 µg/mL (≈ 117 µM) | 0.2 µg/mL (≈ 0.234 µM) | 0.2 µg/mL (≈ 0.234 µM) | 0.2 µg/mL (≈ 0.234 µM) | 100 µg/mL (≈ 117 µM) | 0.2 µg/mL (≈ 0.234 µM) | 0.1 µg/mL (≈ 0.117 µM) | 0.2 µg/mL (≈ 0.234 µM) | 0.1 µg/mL (≈ 0.117 µM) | 0.05 µg/mL (≈ 0.0586 µM) | 0.01 µg/mL (≈ 0.0117 µM) | 0.02 µg/mL (≈ 0.0234 µM) | 50 µg/mL (≈ 58.6 µM) | 0.39 µg/mL (≈ 0.457 µM) | 100 µg/mL (≈ 117 µM) | 1.56 µg/mL (≈ 1.83 µM) | 50 µg/mL (≈ 58.6 µM) | 50 µg/mL (≈ 58.6 µM) | MIC (ESCHERICHIA COLI KNK 437): > 100 µg/mL; MIC [13]: 100 µg/mL (≈ 117 µM); MIC [14]: 100 µg/mL (≈ 117 µM); MIC [15]: > 100 µg/mL; MIC [16]: 100 µg/mL (≈ 117 µM); MIC [17]: 100 µg/mL (≈ 117 µM); MIC [18]: > 100 µg/mL; MIC [19]: 0.78 µg/mL (≈ 0.914 µM); MIC (PSEUDOMONAS CEPACIA 296I): 50 µg/mL (≈ 58.6 µM); MIC [20]: 100 µg/mL (≈ 117 µM); MIC [21]: 100 µg/mL (≈ 117 µM); MIC (CANDIDA ALBICANS CCH 442): 100 µg/mL (≈ 117 µM); MIC [22]: 0.2 µg/mL (≈ 0.234 µM) |
| CCC1OC(=O)C(C)C(=O)C(C)C(OC2OC(C)CC(N(C)C)C2O)C(C)(OC)CC(C)C2=NCC(COCc3ccccc3F)N3C(=O)OC1(C)C3C2C (stereo not drawn) [Example 73] | 0.1 µg/mL (≈ 0.129 µM) | 0.1 µg/mL (≈ 0.129 µM) | > 100 µg/mL | 0.1 µg/mL (≈ 0.129 µM) | 0.1 µg/mL (≈ 0.129 µM) | 0.1 µg/mL (≈ 0.129 µM) | > 100 µg/mL | 0.1 µg/mL (≈ 0.129 µM) | 0.05 µg/mL (≈ 0.0644 µM) | 0.1 µg/mL (≈ 0.129 µM) | 0.01 µg/mL (≈ 0.0129 µM) | ≤ 0.005 µg/mL | 0.01 µg/mL (≈ 0.0129 µM) | ≤ 0.005 µg/mL | 100 µg/mL (≈ 129 µM) | 0.39 µg/mL (≈ 0.503 µM) | 50 µg/mL (≈ 64.4 µM) | 0.2 µg/mL (≈ 0.258 µM) | 25 µg/mL (≈ 32.2 µM) | 12.5 µg/mL (≈ 16.1 µM) | MIC (ESCHERICHIA COLI KNK 437): 50 µg/mL (≈ 64.4 µM); MIC [13]: 100 µg/mL (≈ 129 µM); MIC [14]: 100 µg/mL (≈ 129 µM); MIC [15]: > 100 µg/mL; MIC [16]: 100 µg/mL (≈ 129 µM); MIC [17]: > 100 µg/mL; MIC [18]: > 100 µg/mL; MIC [19]: 0.39 µg/mL (≈ 0.503 µM); MIC (PSEUDOMONAS CEPACIA 296I): 25 µg/mL (≈ 32.2 µM); MIC [20]: 100 µg/mL (≈ 129 µM); MIC [21]: 100 µg/mL (≈ 129 µM); MIC (CANDIDA ALBICANS CCH 442): > 100 µg/mL; MIC [22]: 0.39 µg/mL (≈ 0.503 µM) |
| CCC1OC(=O)C(C)C(=O)C(C)C(OC2OC(C)CC(N(C)C)C2O)C(C)(OC)CC(C)C2=NC(COCc3ccc(N(C)C)cc3)CN3C(=O)OC1(C)C3C2C (stereo not drawn) [Example 76] | 0.39 µg/mL (≈ 0.487 µM) | 0.39 µg/mL (≈ 0.487 µM) | > 100 µg/mL | 0.39 µg/mL (≈ 0.487 µM) | 0.2 µg/mL (≈ 0.25 µM) | 0.39 µg/mL (≈ 0.487 µM) | > 100 µg/mL | 0.39 µg/mL (≈ 0.487 µM) | 0.1 µg/mL (≈ 0.125 µM) | 0.39 µg/mL (≈ 0.487 µM) | 0.2 µg/mL (≈ 0.25 µM) | 0.1 µg/mL (≈ 0.125 µM) | 0.01 µg/mL (≈ 0.0125 µM) | 0.1 µg/mL (≈ 0.125 µM) | > 100 µg/mL | 0.39 µg/mL (≈ 0.487 µM) | > 100 µg/mL | 0.39 µg/mL (≈ 0.487 µM) | > 100 µg/mL | 50 µg/mL (≈ 62.4 µM) | MIC (ESCHERICHIA COLI KNK 437): > 100 µg/mL; MIC [13]: > 100 µg/mL; MIC [14]: > 100 µg/mL; MIC [15]: > 100 µg/mL; MIC [16]: > 100 µg/mL; MIC [17]: > 100 µg/mL; MIC [18]: > 100 µg/mL; MIC [19]: 1.56 µg/mL (≈ 1.95 µM); MIC (PSEUDOMONAS CEPACIA 296I): > 100 µg/mL; MIC [20]: > 100 µg/mL; MIC [21]: > 100 µg/mL; MIC (CANDIDA ALBICANS CCH 442): > 100 µg/mL; MIC [22]: 6.2 µg/mL (≈ 7.74 µM) |
| CC[C@H]1OC(=O)[C@H](C)C(=O)[C@H](C)[C@@H](O[C@@H]2O[C@H](C)C[C@H](N(C)C)[C@H]2O)[C@](C)(OC)C[C@@H](C)C2=N[C@@H](COCc3ccccc3)CN3C(=O)O[C@@]1(C)[C@H]3[C@H]2C [Example 89] | 0.39 µg/mL (≈ 0.515 µM) | 0.39 µg/mL (≈ 0.515 µM) | > 100 µg/mL | 0.39 µg/mL (≈ 0.515 µM) | 0.39 µg/mL (≈ 0.515 µM) | 0.39 µg/mL (≈ 0.515 µM) | > 100 µg/mL | 0.39 µg/mL (≈ 0.515 µM) | 0.1 µg/mL (≈ 0.132 µM) | 0.39 µg/mL (≈ 0.515 µM) | 0.05 µg/mL (≈ 0.066 µM) | 0.01 µg/mL (≈ 0.0132 µM) | 0.01 µg/mL (≈ 0.0132 µM) | 0.02 µg/mL (≈ 0.0264 µM) | 100 µg/mL (≈ 132 µM) | 0.2 µg/mL (≈ 0.264 µM) | 100 µg/mL (≈ 132 µM) | 0.39 µg/mL (≈ 0.515 µM) | 100 µg/mL (≈ 132 µM) | 25 µg/mL (≈ 33 µM) | MIC (ESCHERICHIA COLI KNK 437): 100 µg/mL (≈ 132 µM); MIC [13]: > 100 µg/mL; MIC [14]: > 100 µg/mL; MIC [15]: > 100 µg/mL; MIC [16]: > 100 µg/mL; MIC [17]: > 100 µg/mL; MIC [18]: > 100 µg/mL; MIC [19]: 1.56 µg/mL (≈ 2.06 µM); MIC (PSEUDOMONAS CEPACIA 296I): 25 µg/mL (≈ 33 µM); MIC [20]: 100 µg/mL (≈ 132 µM); MIC [21]: > 100 µg/mL; MIC (CANDIDA ALBICANS CCH 442): > 100 µg/mL; MIC [22]: 0.78 µg/mL (≈ 1.03 µM) |
